# Reference: paper PMC8214221, “Sequence determinants in the cathelicidin LL-37 that promote inflammation via presentation of RNA to scavenger receptors” (The Journal of Biological Chemistry, 2021)
# Residues, ends and D or L forms follow the SMILES beside them.
# Columns and labels:
# [1] = tested on: normal human epidermal keratinocytes (NHEKs); assay: LDH release cytotoxicity assay in keratinocytes; assay type: cell-based; conditions: minimal concentration giving 50% LDH release by NHEKs
# Summary of the method: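 Normal human epidermal keratinocytes were exposed to LL-34 parent and alanine-substituted peptides. Cytotoxicity was read as LDH release in fresh culture supernatants after treatment, using a commercial kit, and reported as the minimal concentration showing toxicity.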
# [2] = tested on: NHEKs, IL-6 secretion in response to U1 dsRNA; assay: IL-6 secretion ELISA in NHEKs; assay type: cell-based, human; conditions: U1 dsRNA 2.5 μg/ml + peptide 2 μM, 18 h, n = 3
# Method: Protein levels of human IL-6 were analyzed from cell supernatant with ELISA (n = 3). Corresponding MIC values of LL-34 peptides L1A–R34A against Staphylococcus aureus USA300 are shown in the heat map. B, human dermal endothelial cells (HDMECs) were treated with either U1 dsRNA (2.5 μg/ml) or a combination of U1 dsRNA (2.5 μg/ml) and LL-34 peptides (Pep 1–Pep 34 and Pep–parent LL-34) at 2 μM for 18 h. IL-6 ELISA results are shown (n = 3). Green bars denote loss of IL-6 protein secretion compared with parent control shown in red. C, helical wheel plot for LL-34. Amino acids with green circles denote specific residues where replacement with an alanine caused the loss of IL-6 secretion compared with parent LL-34 peptide in NHEKs cotreated with U1 dsRNA. D, in the helical wheel plot for LL-34, circled green amino acids indicate that a substitution caused a loss of vetting in HDMEC. E–H, NHEKs were treated with LL-34-parent peptide (LL-34-P), LL-34-F5A, LL-34-I24A, LL-34-F27A, and LL-34-L31A at 2 μM, either individually or in combination with U1 dsRNA (2.5 μg/ml) for 8 h. Gene expression of IL-6, IFNB1, TSLP, and CXCL10 was assessed with qRT-PCR. GAPDH was used as a reference gene (n = 3) (∗p < 0.05; ∗∗∗∗p < 0.0001). One way-ANOVA was used. IL-6, interleukin 6; LL-34, 34-amino acid peptide; MIC, minimum inhibitory concentration, ns, not significant.
# We hypothesized that sequential replacement of each amino acid in LL-34 peptide with a neutral amino acid alanine might reveal the amino acid residues critical for its ability to induce inflammation in response to U1 dsRNA. First, we treated NHEKs and human dermal microvascular endothelial cells (HDMECs) with LL-34 parent peptide and each of the 34 mutants at 2 μM for 18 h and measured the secretion of interleukin 6 (IL-6) in the supernatant by ELISA (Fig. S1, A and B). […] We then treated both NHEKs and HDMECs with a combination of U1 dsRNA (2.5 μg/ml) and the LL-34 parent/mutant peptides at 2 μM for 18 h and measured IL-6 secretion (Fig. 1, A–C). […] A similar pattern of IL-6 release was observed when HDMECs were treated with the peptide library and U1 dsRNA (Fig. 1B).
# Cell culture supernatant was frozen at −80 °C until use for analysis. ELISA was performed with sandwich ELISA kits (R&D Systems) and quantified on a Spectramax Absorbance reader (Molecular Biosystems). Data were analyzed with GraphPad.
smiles,measurement,setting,value
CC[C@H](C)[C@H](NC(=O)[C@H](CCCCN)NC(=O)[C@H](CCC(=O)O)NC(=O)[C@H](CCCCN)NC(=O)[C@H](CO)NC(=O)[C@H](CCCCN)NC(=O)[C@H](CCCNC(=N)N)NC(=O)[C@H](Cc1ccccc1)NC(=O)[C@H](Cc1ccccc1)NC(=O)[C@H](CC(=O)O)NC(=O)CNC(=O)[C@H](CC(C)C)NC(=O)[C@@H](N)CC(C)C)C(=O)NCC(=O)N[C@@H](CCCCN)C(=O)N[C@@H](CCC(=O)O)C(=O)N[C@@H](Cc1ccccc1)C(=O)N[C@@H](CCCCN)C(=O)N[C@@H](CCCNC(=N)N)C(=O)N[C@H](C(=O)N[C@H](C(=O)N[C@@H](CCC(N)=O)C(=O)N[C@@H](CCCNC(=N)N)C(=O)N[C@H](C(=O)N[C@@H](CCCCN)C(=O)N[C@@H](CC(=O)O)C(=O)N[C@@H](Cc1ccccc1)C(=O)N[C@@H](CC(C)C)C(=O)N[C@@H](CCCNC(=N)N)C(=O)N[C@@H](CC(N)=O)C(=O)N[C@@H](CC(C)C)C(=O)N[C@@H](C)C(=O)N1CCC[C@H]1C(=O)N[C@@H](CCCNC(=N)N)C(=O)O)[C@@H](C)CC)C(C)C)[C@@H](C)CC [LL-34—V32A] (H-LLGDFFRKSKEKIGKEFKRIVQRIKDFLRNLAPR-OH),Minimal cytotoxic concentration in NHEK (LD50),[1],10 µM
same,"IL-6 protein secretion, cotreatment with U1 dsRNA, vs U1 dsRNA + LL-34 parent",[2],reduced secretion of IL-6 protein
CC[C@H](C)[C@H](NC(=O)[C@H](CCCCN)NC(=O)[C@H](CCC(=O)O)NC(=O)[C@H](CCCCN)NC(=O)[C@H](CO)NC(=O)[C@H](CCCCN)NC(=O)[C@H](CCCNC(=N)N)NC(=O)[C@H](C)NC(=O)[C@H](Cc1ccccc1)NC(=O)[C@H](CC(=O)O)NC(=O)CNC(=O)[C@H](CC(C)C)NC(=O)[C@@H](N)CC(C)C)C(=O)NCC(=O)N[C@@H](CCCCN)C(=O)N[C@@H](CCC(=O)O)C(=O)N[C@@H](Cc1ccccc1)C(=O)N[C@@H](CCCCN)C(=O)N[C@@H](CCCNC(=N)N)C(=O)N[C@H](C(=O)N[C@H](C(=O)N[C@@H](CCC(N)=O)C(=O)N[C@@H](CCCNC(=N)N)C(=O)N[C@H](C(=O)N[C@@H](CCCCN)C(=O)N[C@@H](CC(=O)O)C(=O)N[C@@H](Cc1ccccc1)C(=O)N[C@@H](CC(C)C)C(=O)N[C@@H](CCCNC(=N)N)C(=O)N[C@@H](CC(N)=O)C(=O)N[C@@H](CC(C)C)C(=O)N[C@H](C(=O)N1CCC[C@H]1C(=O)N[C@@H](CCCNC(=N)N)C(=O)O)C(C)C)[C@@H](C)CC)C(C)C)[C@@H](C)CC [LL-34—F6A] (H-LLGDFARKSKEKIGKEFKRIVQRIKDFLRNLVPR-OH),Minimal cytotoxic concentration in NHEK (LD50),[1],5 µM
same,"IL-6 protein secretion, cotreatment with U1 dsRNA, vs U1 dsRNA + LL-34 parent",[2],reduced secretion of IL-6 protein
CC[C@H](C)[C@H](NC(=O)[C@H](CCCCN)NC(=O)[C@H](CCC(=O)O)NC(=O)[C@H](CCCCN)NC(=O)[C@H](CO)NC(=O)[C@H](CCCCN)NC(=O)[C@H](CCCNC(=N)N)NC(=O)[C@H](Cc1ccccc1)NC(=O)[C@H](Cc1ccccc1)NC(=O)[C@H](CC(=O)O)NC(=O)CNC(=O)[C@H](CC(C)C)NC(=O)[C@@H](N)CC(C)C)C(=O)NCC(=O)N[C@@H](CCCCN)C(=O)N[C@@H](CCC(=O)O)C(=O)N[C@@H](C)C(=O)N[C@@H](CCCCN)C(=O)N[C@@H](CCCNC(=N)N)C(=O)N[C@H](C(=O)N[C@H](C(=O)N[C@@H](CCC(N)=O)C(=O)N[C@@H](CCCNC(=N)N)C(=O)N[C@H](C(=O)N[C@@H](CCCCN)C(=O)N[C@@H](CC(=O)O)C(=O)N[C@@H](Cc1ccccc1)C(=O)N[C@@H](CC(C)C)C(=O)N[C@@H](CCCNC(=N)N)C(=O)N[C@@H](CC(N)=O)C(=O)N[C@@H](CC(C)C)C(=O)N[C@H](C(=O)N1CCC[C@H]1C(=O)N[C@@H](CCCNC(=N)N)C(=O)O)C(C)C)[C@@H](C)CC)C(C)C)[C@@H](C)CC [LL-34—F17A] (H-LLGDFFRKSKEKIGKEAKRIVQRIKDFLRNLVPR-OH),Minimal cytotoxic concentration in NHEK (LD50),[1],5 µM
same,"IL-6 protein secretion, cotreatment with U1 dsRNA, vs U1 dsRNA + LL-34 parent",[2],reduced secretion of IL-6 protein
CC[C@H](C)[C@H](NC(=O)[C@H](CCCCN)NC(=O)[C@H](CCC(=O)O)NC(=O)[C@H](CCCCN)NC(=O)[C@H](CO)NC(=O)[C@H](CCCCN)NC(=O)[C@H](CCCNC(=N)N)NC(=O)[C@H](Cc1ccccc1)NC(=O)[C@H](Cc1ccccc1)NC(=O)[C@H](CC(=O)O)NC(=O)CNC(=O)[C@H](CC(C)C)NC(=O)[C@@H](N)CC(C)C)C(=O)NCC(=O)N[C@@H](CCCCN)C(=O)N[C@@H](CCC(=O)O)C(=O)N[C@@H](Cc1ccccc1)C(=O)N[C@@H](CCCCN)C(=O)N[C@@H](CCCNC(=N)N)C(=O)N[C@@H](C)C(=O)N[C@H](C(=O)N[C@@H](CCC(N)=O)C(=O)N[C@@H](CCCNC(=N)N)C(=O)N[C@H](C(=O)N[C@@H](CCCCN)C(=O)N[C@@H](CC(=O)O)C(=O)N[C@@H](Cc1ccccc1)C(=O)N[C@@H](CC(C)C)C(=O)N[C@@H](CCCNC(=N)N)C(=O)N[C@@H](CC(N)=O)C(=O)N[C@@H](CC(C)C)C(=O)N[C@H](C(=O)N1CCC[C@H]1C(=O)N[C@@H](CCCNC(=N)N)C(=O)O)C(C)C)[C@@H](C)CC)C(C)C [LL-34—I20A] (H-LLGDFFRKSKEKIGKEFKRAVQRIKDFLRNLVPR-OH),Minimal cytotoxic concentration in NHEK (LD50),[1],5 µM
same,"IL-6 protein secretion, cotreatment with U1 dsRNA, vs U1 dsRNA + LL-34 parent",[2],reduced secretion of IL-6 protein
CC[C@H](C)[C@H](NC(=O)[C@H](C)NC(=O)[C@H](CCC(N)=O)NC(=O)[C@@H](NC(=O)[C@@H](NC(=O)[C@H](CCCNC(=N)N)NC(=O)[C@H](CCCCN)NC(=O)[C@H](Cc1ccccc1)NC(=O)[C@H](CCC(=O)O)NC(=O)[C@H](CCCCN)NC(=O)CNC(=O)[C@@H](NC(=O)[C@H](CCCCN)NC(=O)[C@H](CCC(=O)O)NC(=O)[C@H](CCCCN)NC(=O)[C@H](CO)NC(=O)[C@H](CCCCN)NC(=O)[C@H](CCCNC(=N)N)NC(=O)[C@H](Cc1ccccc1)NC(=O)[C@H](Cc1ccccc1)NC(=O)[C@H](CC(=O)O)NC(=O)CNC(=O)[C@H](CC(C)C)NC(=O)[C@@H](N)CC(C)C)[C@@H](C)CC)[C@@H](C)CC)C(C)C)C(=O)N[C@@H](CCCCN)C(=O)N[C@@H](CC(=O)O)C(=O)N[C@@H](Cc1ccccc1)C(=O)N[C@@H](CC(C)C)C(=O)N[C@@H](CCCNC(=N)N)C(=O)N[C@@H](CC(N)=O)C(=O)N[C@@H](CC(C)C)C(=O)N[C@H](C(=O)N1CCC[C@H]1C(=O)N[C@@H](CCCNC(=N)N)C(=O)O)C(C)C [LL-34—R23A] (H-LLGDFFRKSKEKIGKEFKRIVQAIKDFLRNLVPR-OH),Minimal cytotoxic concentration in NHEK (LD50),[1],10 µM
same,"IL-6 protein secretion, cotreatment with U1 dsRNA, vs U1 dsRNA + LL-34 parent",[2],reduced secretion of IL-6 protein
